# Measurements reported in paper PMC10850954, “HDAC6/aggresome processing pathway importance for inflammasome formation is context-dependent” (The Journal of Biological Chemistry, 2024).
# Assays:
# [1] = tested on: pyrin inflammasome; assay: IL-18 release in U937-pyrin cells after BAA473 activation; assay type: cell-based, human; conditions: BAA473 200 μM 4 h, vs DMSO or XY-07-191 control
# Description: Cells were treated with the indicated compounds and HDAC6 was detected by immunoblotting with an anti-HDAC6 antibody. Detection of actin was used as a control for protein loading. […] Pyrin inflammasome was activated by BAA473 (200 μM) for 4 h at 37 °C. […] The graph at the bottom presents IL-18 release based on four independent experiments.
# Human IL-1β and IL-18 were determined with Cisbio HTRF Cisbio Human IL1β (#62HIL1BPET) and Human IL18 (#62HIL18PEG) protocols. All the data were from 3 or 4 independent biological replicates.
# For pyrin inflammasome, U937-pyrin cells were seeded in 96 well after 0.5 μM PMA treatment for 3 h and then challenged by BAA473 (200 μM) for 4 h at 37 °C.
# [2] = molecular target: T1, HDAC6 (Homo sapiens, UniProt Q9UBN7); assay: HDAC6 degradation in pyrin-expressing U937 cells (immunoblot); assay type: cell-based; set-up: endogenous in cells; conditions: 0.1 μM to 10 μM
# T1 sequence (Q9UBN7 1-1215): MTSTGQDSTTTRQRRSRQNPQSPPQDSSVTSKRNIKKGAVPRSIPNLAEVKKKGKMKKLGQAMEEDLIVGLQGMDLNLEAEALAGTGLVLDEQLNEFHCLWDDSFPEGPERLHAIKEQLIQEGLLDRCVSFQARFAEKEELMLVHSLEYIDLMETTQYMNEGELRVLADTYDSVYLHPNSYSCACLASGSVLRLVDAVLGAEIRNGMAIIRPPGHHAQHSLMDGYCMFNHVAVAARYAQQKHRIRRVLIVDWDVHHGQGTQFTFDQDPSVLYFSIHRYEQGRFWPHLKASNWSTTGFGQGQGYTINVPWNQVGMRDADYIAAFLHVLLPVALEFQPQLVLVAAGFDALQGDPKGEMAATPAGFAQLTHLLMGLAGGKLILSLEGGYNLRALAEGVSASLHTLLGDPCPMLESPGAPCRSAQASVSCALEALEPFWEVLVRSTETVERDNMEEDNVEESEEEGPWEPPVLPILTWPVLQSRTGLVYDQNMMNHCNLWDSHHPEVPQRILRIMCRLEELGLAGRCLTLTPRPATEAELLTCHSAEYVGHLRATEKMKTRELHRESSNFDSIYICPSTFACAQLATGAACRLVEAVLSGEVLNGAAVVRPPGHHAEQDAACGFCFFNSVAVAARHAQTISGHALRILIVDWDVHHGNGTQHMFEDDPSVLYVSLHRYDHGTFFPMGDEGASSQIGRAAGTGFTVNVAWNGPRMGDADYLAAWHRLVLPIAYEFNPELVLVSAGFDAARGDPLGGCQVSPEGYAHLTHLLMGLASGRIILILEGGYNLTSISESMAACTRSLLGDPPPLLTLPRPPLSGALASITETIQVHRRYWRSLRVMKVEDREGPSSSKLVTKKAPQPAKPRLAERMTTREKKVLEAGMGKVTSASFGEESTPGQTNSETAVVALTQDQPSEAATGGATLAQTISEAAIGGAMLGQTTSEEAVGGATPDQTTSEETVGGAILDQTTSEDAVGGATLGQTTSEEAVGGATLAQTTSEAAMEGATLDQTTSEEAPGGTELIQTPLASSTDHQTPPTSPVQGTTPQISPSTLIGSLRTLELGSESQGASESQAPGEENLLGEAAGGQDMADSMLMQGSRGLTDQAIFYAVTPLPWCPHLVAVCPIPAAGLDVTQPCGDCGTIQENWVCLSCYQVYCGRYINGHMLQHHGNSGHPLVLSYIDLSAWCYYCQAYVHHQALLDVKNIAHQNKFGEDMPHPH
# Description: Cells were treated with the indicated compounds and HDAC6 was detected by immunoblotting with an anti-HDAC6 antibody. Detection of actin was used as a control for protein loading. […] The membrane was blocked with 5% milk-TBS, and then incubated with primary antibodies overnight at 4 °C. The signal was developed with HRP-conjugated secondary antibodies and Amersham ECL Western Blotting Detection Reagent (Cytiva#RPN2106).
structure (smiles),measurement,setting,value
CN(C(=O)CCCNc1cccc2c1C(=O)N(C1CCC(=O)NC1=O)C2=O)c1ccc(NC(=O)CCCCCCC(=O)NO)cc1 (centres unmarked) [XY-07-35],change in IL-18 secretion,[1],did not result in any change
same,HDAC6 degradation,[2],efficiently degraded
